# Bridge positions count the residues as written; N and C are the ends. Square brackets hold non-standard residues; d marks the D form. Peptide text beside a SMILES is read from it. * marks the point of attachment. ξ: configuration not given here. Phe(4-COOH) = N[C@@H](Cc1ccc(C(=O)O)cc1)C(=O)O; Bip = N[C@@H](Cc1ccc(-c2ccccc2)cc1)C(=O)O; Lys(Me3) = C[N+](C)(C)CCCC[C@H](N)C(=O)O; Phe(3-CN) = N#Cc1cccc(C[C@H](N)C(=O)O)c1; Phe(3-F) = N[C@@H](Cc1cccc(F)c1)C(=O)O; Phe(3-Me) = Cc1cccc(C[C@H](N)C(=O)O)c1; Val(3-OH) = CC(C)(O)[C@H](N)C(=O)O; aIle = CC[C@@H](C)[C@H](N)C(=O)O; 3Pal = N[C@@H](Cc1cccnc1)C(=O)O; 4Pal = N[C@@H](Cc1ccncc1)C(=O)O; 2Thi = N[C@@H](Cc1cccs1)C(=O)O; Cha = N[C@@H](CC1CCCCC1)C(=O)O; Cit = NC(=O)NCCC[C@H](N)C(=O)O; Ile(3ξ) = CCC(C)[C@H](N)C(=O)O; Thr(3ξ) = CC(O)[C@H](N)C(=O)O; Carboxymethyl = O=C(O)C*; NMeA = CN[C@@H](C)C(=O)O; Nle = CCCC[C@H](N)C(=O)O; Orn = NCCC[C@H](N)C(=O)O; Dab = NCC[C@H](N)C(=O)O; Dap = NC[C@H](N)C(=O)O; ξV = CC(C)C(N)C(=O)O; ξC = NC(CS)C(=O)O
# Target: T1, PE-labeled human PD-L1-Ig binding to Jurkat cell line over-expressing human PD-1 (Jurkat-PD-1) (Homo sapiens, UniProt Q15116)
# T1 construct: expressed in transfected cells; host or cells: Jurkat
# Assay: Jurkat-PD-1 Cell Binding High-Content Screening Assay (CBA): Method 1
# Details: Jurkat-hPD-1 cells, PE-labeled PD-L1-Ig 20 nM final; read-out: Jurkat HPDL1 PD1 IC50 (uM) (Method 1)
# T1 sequence (Q15116 25-288): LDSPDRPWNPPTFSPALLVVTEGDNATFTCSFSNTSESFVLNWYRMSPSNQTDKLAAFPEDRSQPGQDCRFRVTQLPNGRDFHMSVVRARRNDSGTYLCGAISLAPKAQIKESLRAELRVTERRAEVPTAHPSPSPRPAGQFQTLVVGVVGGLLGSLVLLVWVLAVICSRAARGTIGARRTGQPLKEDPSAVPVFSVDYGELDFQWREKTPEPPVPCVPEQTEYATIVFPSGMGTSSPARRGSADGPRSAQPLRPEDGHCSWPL
row,IC50,SMILES
1,0.59 µM,CC(C)C[C@@H]1NC(=O)[C@H](CCN)NC(=O)[C@@H](CC(C)C)NC(=O)[C@H](C)N(C)C(=O)[C@H](CCCNC(=N)N)NC(=O)[C@H](Cc2ccc(-c3ccccc3)cc2)NC(=O)[C@H](C(C)C)NC(=O)[C@H](Cc2c[nH]c3ccccc23)NC(=O)[C@H](CC(N)=O)NC(=O)[C@H](Cc2ccc(OCC(=O)O)cc2)NC(=O)[C@H](CC(N)=O)NC(=O)CSC[C@@H](C(=O)N[C@@H](C)C(N)=O)NC(=O)[C@H]([C@@H](C)O)NC(=O)[C@H](C(C)C)NC1=O [Compound 1206] ({CH2CO}-NY(Carboxymethyl)NWV[Bip]R[NMeA][dL][Dab]LVTCA-NH2; thioether N-14)
2,0.03 µM,CC(C)C[C@@H]1NC(=O)[C@H](CCN)NC(=O)[C@@H](CC(C)C)NC(=O)[C@H](C)N(C)C(=O)[C@H](CCCNC(N)=O)NC(=O)[C@H](Cc2ccc(-c3ccccc3)cc2)NC(=O)[C@H](C(C)C)NC(=O)[C@H](Cc2c[nH]c3ccccc23)NC(=O)[C@H](CC(=O)O)NC(=O)[C@H](Cc2ccc(O)cc2)NC(=O)[C@H](CC(N)=O)NC(=O)CSC[C@@H](C(=O)N[C@@H](C)C(N)=O)NC(=O)[C@H](CO)NC(=O)[C@H](C(C)C)NC1=O [Compound 1237] ({CH2CO}-NYDWV[Bip][Cit][NMeA][dL][Dab]LVSCA-NH2; thioether N-14)
3,0.07 µM,CCCC[C@@H]1NC(=O)[C@H](CC(N)=O)NC(=O)[C@@H](C)NC(=O)[C@H](C)N(C)C(=O)[C@H](C(C)C)NC(=O)[C@H](Cc2ccc(-c3ccccc3)cc2)NC(=O)[C@H](CC(C)C)NC(=O)[C@H](Cc2c[nH]c3ccccc23)NC(=O)[C@H](CC(=O)O)NC(=O)[C@H](Cc2ccc(O)cc2)NC(=O)[C@H](Cc2ccccc2)NC(=O)CSC[C@@H](C(=O)N[C@@H](C)C(N)=O)NC(=O)[C@H]([C@@H](C)O)NC(=O)[C@H](C(C)C)NC1=O [Compound 1778] ({CH2CO}-FYDWL[Bip]V[NMeA][dA]N[Nle]VTCA-NH2; thioether N-14)
4,0.03 µM,CC[C@H](C)[C@@H]1NC(=O)[C@H](Cc2ccc(-c3ccccc3)cc2)NC(=O)[C@H](C(C)C)NC(=O)[C@H](Cc2c[nH]c3ccccc23)NC(=O)[C@H](CC(=O)O)NC(=O)[C@H](Cc2ccc(OCC(=O)O)cc2)NC(=O)[C@H](Cc2ccncc2)NC(=O)CSC[C@@H](C(=O)N[C@@H](C)C(N)=O)NC(=O)[C@H]([C@@H](C)O)NC(=O)[C@H](C(C)C)NC(=O)[C@H](CC(C)C)NC(=O)[C@H](CCN)NC(=O)[C@@H](CC(C)C)NC(=O)[C@H](C)N(C)C1=O [Compound 1413] ({CH2CO}-[4Pal]Y(Carboxymethyl)DWV[Bip]I[NMeA][dL][Dab]LVTCA-NH2; thioether N-14)
5,0.16 µM,CC(C)C[C@@H]1NC(=O)[C@H](Cc2c[nH]c3ccccc23)NC(=O)[C@H](CC(=O)O)NC(=O)[C@H](Cc2ccc(O)cc2)NC(=O)[C@H](Cc2ccccc2)NC(=O)CSC[C@@H](C(=O)NCC(N)=O)NC(=O)[C@H](CO)NC(=O)[C@H](C(C)C)NC(=O)[C@H](CC(C)C)NC(=O)[C@H](CC(N)=O)NC(=O)[C@H](CCN)NC(=O)[C@H](C)N(C)C(=O)[C@H](C(C)C)NC(=O)[C@H](Cc2ccc(-c3ccccc3)cc2)NC1=O [Compound 1795] ({CH2CO}-FYDWL[Bip]V[NMeA][Dab]NLVSCG-NH2; thioether N-14)
6,0.01 µM,CCC(C)[C@@H]1NC(=O)[C@H](Cc2ccc(-c3ccccc3)cc2)NC(=O)[C@H](C(C)C)NC(=O)[C@H](Cc2c[nH]c3ccccc23)NC(=O)[C@H](CC(=O)O)NC(=O)[C@H](Cc2ccc(O)cc2)NC(=O)[C@H](CCCC[N+](C)(C)C)NC(=O)CSCC(C(=O)NCC(=O)O)NC(=O)[C@H](C(C)O)NC(=O)[C@H](C(C)C)NC(=O)[C@H](CC2CCCCC2)NC(=O)[C@H](CCN)NC(=O)[C@@H](CC(C)C)NC(=O)[C@H](C)N(C)C1=O (stereo partly drawn) [Compound 2217] ({CH2CO}-[Lys(Me3)]YDWV[Bip][Ile(3ξ)][NMeA][dL][Dab][Cha]V[Thr(3ξ)][ξC]G-OH; thioether N-14)
7,0.01 µM,CC[C@H](C)[C@@H]1NC(=O)[C@H](Cc2ccc(-c3ccccc3)cc2)NC(=O)[C@H](C(C)C)NC(=O)[C@H](Cc2cccc(C)c2)NC(=O)[C@H](CC(=O)O)NC(=O)[C@H](Cc2ccncc2)NC(=O)[C@H](CN)NC(=O)CSC[C@@H](C(=O)N[C@@H](C)C(N)=O)NC(=O)[C@H]([C@@H](C)O)NC(=O)[C@H](C(C)C)NC(=O)[C@H](CC(C)C)NC(=O)[C@H](CCN)NC(=O)[C@@H](CC(C)C)NC(=O)[C@H](C)N(C)C1=O [Compound 1544] ({CH2CO}-[Dap][4Pal]D[Phe(3-Me)]V[Bip]I[NMeA][dL][Dab]LVTCA-NH2; thioether N-14)

# The remaining lines, values behind:
row,SMILES,IC50
1,CC(C)C[C@@H]1NC(=O)[C@H](CCN)NC(=O)[C@@H](CC(C)C)NC(=O)[C@H](C)N(C)C(=O)[C@H](CCCNC(=N)N)NC(=O)[C@H](Cc2ccc(-c3ccccc3)cc2)NC(=O)[C@H](C(C)C)NC(=O)[C@H](Cc2c[nH]c3ccccc23)NC(=O)[C@H](CC(=O)O)NC(=O)[C@H](Cc2ccc(O)cc2)NC(=O)[C@H](Cc2cccnc2)NC(=O)CSC[C@@H](C(=O)N[C@@H](C)C(N)=O)NC(=O)[C@H]([C@@H](C)O)NC(=O)[C@H](C(C)C)NC1=O [Compound 1053] ({CH2CO}-[3Pal]YDWV[Bip]R[NMeA][dL][Dab]LVTCA-NH2; thioether N-14),0.12 µM
2,CC(C)C[C@@H]1NC(=O)[C@H](CCN)NC(=O)[C@@H](CC(C)C)NC(=O)[C@H](C)N(C)C(=O)[C@H](CCCNC(N)=O)NC(=O)[C@H](Cc2ccc(-c3ccccc3)cc2)NC(=O)[C@H](C(C)C)NC(=O)[C@H](Cc2c[nH]c3ccccc23)NC(=O)[C@H](CC(=O)O)NC(=O)[C@H](Cc2ccc(O)cc2)NC(=O)[C@H](Cc2ccc(C(=O)O)cc2)NC(=O)CSC[C@@H](C(=O)N[C@@H](C)C(N)=O)NC(=O)[C@H]([C@@H](C)O)NC(=O)[C@H](C(C)C)NC1=O [Compound 1326] ({CH2CO}-[Phe(4-COOH)]YDWV[Bip][Cit][NMeA][dL][Dab]LVTCA-NH2; thioether N-14),0.02 µM
3,CC(C)C[C@H]1NC(=O)[C@H](C)N(C)C(=O)[C@H](CCCCN)NC(=O)[C@H](Cc2ccc(-c3ccccc3)cc2)NC(=O)[C@H](C(C)C)NC(=O)[C@H](Cc2c[nH]c3ccccc23)NC(=O)[C@H](CC(=O)O)NC(=O)[C@H](Cc2ccncc2)NC(=O)[C@H](Cc2ccc(OCC(=O)O)cc2)NC(=O)CSC[C@@H](C(N)=O)NC(=O)[C@H](CO)NC(=O)[C@H](C(C)C)NC(=O)[C@H](CC2CCCCC2)NC(=O)[C@H](CC(N)=O)NC1=O [Compound 2244] ({CH2CO}-Y(Carboxymethyl)[4Pal]DWV[Bip]K[NMeA][dL]N[Cha]VSC-NH2; thioether N-14),0.04 µM
4,CC(C)C[C@@H]1NC(=O)[C@H](CCN)NC(=O)[C@@H](CC(C)C)NC(=O)[C@H](C)N(C)C(=O)[C@H](CCC(=O)O)NC(=O)[C@H](Cc2ccc(-c3ccccc3)cc2)NC(=O)[C@H](C(C)C)NC(=O)[C@H](Cc2c[nH]c3ccccc23)NC(=O)[C@H](CC(=O)O)NC(=O)[C@H](Cc2ccc(O)cc2)NC(=O)[C@H](CC(N)=O)NC(=O)CSC[C@@H](C(=O)N[C@@H](C)C(N)=O)NC(=O)[C@H](CCCN)NC(=O)[C@H](C(C)C)NC1=O [Compound 1238] ({CH2CO}-NYDWV[Bip]E[NMeA][dL][Dab]LV[Orn]CA-NH2; thioether N-14),0.03 µM
5,CC(=O)NCCCC[C@@H]1NC(=O)[C@H](C(C)C)NC(=O)[C@H](CC2CCCCC2)NC(=O)[C@H](CCC(=O)O)NC(=O)[C@@H](CC(C)C)NC(=O)[C@H](C)N(C)C(=O)[C@H](Cc2cnc[nH]2)NC(=O)[C@H](Cc2ccc(-c3ccccc3)cc2)NC(=O)[C@H](CC(C)C)NC(=O)[C@H](Cc2cccc(C)c2)NC(=O)[C@H](CC(=O)O)NC(=O)[C@H](Cc2ccc(OCC(=O)O)cc2)NC(=O)[C@H](Cc2ccc(OCC(=O)O)cc2)NC(=O)CSC[C@@H](C(=O)N[C@H](C)C(N)=O)NC1=O [Compound 2124] ({CH2CO}-Y(Carboxymethyl)Y(Carboxymethyl)D[Phe(3-Me)]L[Bip]H[NMeA][dL]E[Cha]VK(Ac)C[dA]-NH2; thioether N-14),0.04 µM
6,CCNC(=O)[C@H](CCN)NC(=O)[C@@H]1CSCC(=O)N[C@@H](Cc2cccs2)C(=O)N[C@@H](Cc2cccc(C#N)c2)C(=O)N[C@@H](CC(=O)O)C(=O)N[C@@H](Cc2cccc(C)c2)C(=O)N[C@@H](Cc2cccc(F)c2)C(=O)N[C@@H](Cc2ccc(-c3ccccc3)cc2)C(=O)N[C@@H](Cc2ccc(OCC(=O)O)cc2)C(=O)N(C)[C@@H](C)C(=O)N[C@H](CC(C)C)C(=O)N[C@@H](CCN)C(=O)N[C@@H](CC2CCCCC2)C(=O)N[C@@H](C(C)(C)O)C(=O)N[C@@H](CO)C(=O)N1 [Compound 1841] ({CH2CO}-[2Thi][Phe(3-CN)]D[Phe(3-Me)][Phe(3-F)][Bip]Y(Carboxymethyl)[NMeA][dL][Dab][Cha][Val(3-OH)]SC[Dab]-NHEt; thioether N-14),0.02 µM
7,CC(C)C[C@@H]1NC(=O)[C@H](CCN)NC(=O)[C@@H](CC(C)C)NC(=O)[C@H](C)N(C)C(=O)CNC(=O)[C@H](Cc2ccc(-c3ccccc3)cc2)NC(=O)[C@H](C(C)C)NC(=O)[C@H](Cc2c[nH]c3ccccc23)NC(=O)[C@H](CC(=O)O)NC(=O)[C@H](Cc2ccc(O)cc2)NC(=O)[C@H](CC(N)=O)NC(=O)CSC[C@@H](C(=O)N[C@@H](C)C(N)=O)NC(=O)[C@H]([C@@H](C)O)NC(=O)[C@H](C(C)C)NC1=O [Compound 1281] ({CH2CO}-NYDWV[Bip]G[NMeA][dL][Dab]LVTCA-NH2; thioether N-14),0.33 µM
8,CC[C@@H](C)[C@@H]1NC(=O)[C@H](Cc2ccc(-c3ccccc3)cc2)NC(=O)[C@H](Cc2cnc[nH]2)NC(=O)[C@H](Cc2c[nH]c3ccccc23)NC(=O)[C@H](CC(=O)O)NC(=O)[C@H](Cc2ccc(C(=O)O)cc2)NC(=O)[C@H](Cc2ccc(OCC(=O)O)cc2)NC(=O)CSC[C@@H](C(=O)N[C@@H](CCCCN)C(N)=O)NC(=O)[C@H](CO)NC(=O)C(C(C)C)NC(=O)[C@H](CC(C)C)NC(=O)[C@H](CC(N)=O)NC(=O)[C@@H](CC(C)C)NC(=O)[C@H](C)N(C)C1=O (stereo partly drawn) [Compound 2101] ({CH2CO}-Y(Carboxymethyl)[Phe(4-COOH)]DWH[Bip][aIle][NMeA][dL]NL[ξV]SCK-NH2; thioether N-14),0.11 µM

# Source: US20240409585A1, “MACROCYCLIC IMMUNOMODULATORS” (priority 2021, published 2024)
